Experimental findings from US8148395B2, “Azolopyridin-3-one derivatives as inhibitors of lipases and phospholipases” (Sanofi-Aventis, priority 2006, dated 2012) are described below.

The experiment addresses T1, endothelial lipase (EL) (Homo sapiens, UniProt Q9Y5X9).
T1 construct: EL is released as secretory protein in high concentration into cell culture medium (conditioned medium) by recombinant cell lines (CHO, HEK293); made in house; host or cells: recombinant cell lines (CHO, HEK293); concentrated conditioned medium used as enzyme solution
T1 sequence (Q9Y5X9 21-500): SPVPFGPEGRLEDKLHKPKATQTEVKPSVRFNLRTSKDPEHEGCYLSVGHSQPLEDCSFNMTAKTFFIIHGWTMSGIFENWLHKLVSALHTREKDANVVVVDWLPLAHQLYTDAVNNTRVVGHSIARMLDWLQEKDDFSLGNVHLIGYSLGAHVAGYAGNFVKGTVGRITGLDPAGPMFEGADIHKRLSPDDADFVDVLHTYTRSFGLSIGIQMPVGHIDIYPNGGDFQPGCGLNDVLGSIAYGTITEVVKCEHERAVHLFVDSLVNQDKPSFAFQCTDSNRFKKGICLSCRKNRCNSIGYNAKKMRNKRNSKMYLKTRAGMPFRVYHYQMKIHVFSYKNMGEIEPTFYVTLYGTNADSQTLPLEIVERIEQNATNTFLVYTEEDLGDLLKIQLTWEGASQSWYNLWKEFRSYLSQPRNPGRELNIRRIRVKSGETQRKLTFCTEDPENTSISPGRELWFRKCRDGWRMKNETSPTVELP
Description: EL inhibition assay (EL activity assay, fluorescent Bodipy phospholipid substrate). In kind it is biochemical. The following applies: EL from conditioned medium of recombinant cell lines (CHO, HEK293); 37° C., 90 minutes; HPTLC fluorescence read-out. The source says:
EL is released as secretory protein in high concentration into cell culture medium (conditioned medium) by recombinant cell lines (CHO, HEK293). This was employed as enzyme solution after concentration.
The phospholipase-specific substrate 1,2-bis(4,4-difluoro-5,7-dimethyl-4-bora-3a,4a-diaza-s-indacene-3-undecanoyl)-sn-glycero-3-phosphocholine, (manufacturer Molecular Probes) was used to characterize the enzymatic activity of endothelial lipase and the effect of inhibitors. Hydrolysis of the A1 ester linkage of this phospholipid by the enzyme liberates a fatty acid labeled with the fluorescent dye Bodipy which can be detected after separation by thin-layer chromatography on an HPTLC plate (silica gel 60, Merck) or directly in the reaction vessel by measuring the fluorescence.
The substrate solution was prepared by 100 μg of 1,2-bis(4,4-difluoro-5,7-dimethyl-4-bora-3a,4a-diaza-s-indacene-3-undecanoyl)-sn-glycero-3-phospho-choline (manufacturer Molecular Probes) being dissolved in 100 μl of DMSO and taken up with 2.4 mg of tripalmitin (Sigma) in 393 μl of chloroform which contained 20 mg/ml DOP-choline (1,2-dioleoyl-sn-glycero-3-phosphocholine). 39.3 μl of this lipid mixture were transferred into a fresh reaction vessel and the solvent was evaporated. The lipid mixture was dissolved in 4 ml of 200 mM TRIS-HCl, 150 mM sodium chloride, pH=7.4, by sonication twice. The subsequent enzymic reaction took place at 37° C. for 90 minutes. For this purpose, 20 μl of the substrate solution were incubated with 2 μl of inhibitor of appropriate concentration (dissolved in 10% DMSO, using 10% DMSO solution for control) and 2 μl of enzyme solution (conditioned medium). Then 4 μl of the assay mixture were loaded onto an HPTLC plate (silica gel 60, Merck), and the liberated fluorescent dye was separated for detection with an eluent (diethyl ether:petroleum benzene:acetic acid [78:22:1]). After evaporation of the eluent, the plate was read in a fluorescence scanner. An increased liberation of the fluorescent dye in the uninhibited reaction was to be observed as a measure of the enzymic activity.
The enzymatic activity was reduced as a function of the inhibitor concentration used. The inhibitor concentration at which a half-maximum enzymatic activity is observed is called IC50.
One may read the IC50 as the point on the concentration scale where inhibition reaches its midpoint. For the compound `Cc1cc(Cl)nc2c1c(=O)n(C(=O)NC1CCCc3ccccc31)n2C` (stereo not shown) [Example 12, 6-Chloro-1,4-dimethyl-3-oxo-1,3-dihydropyrazolo[3,4-b]pyridine-2-carboxylic acid (1,2,3,4-tetrahydronaphthalen-1-yl)amide], the IC50 came to 0.029 µM.

For the compound `CCCCCCNC(=O)n1oc2nc(C)ccc2c1=O` [Example 17, 6-Methyl-3-oxo-3H-isoxazolo[5,4-b]pyridine-2-carboxylic acid hexylamide], the IC50 worked out at 0.011 µM.

For `CCCCCCNC(=O)n1oc2ncccc2c1=O` [Example 6, 3-Oxo-3H-isoxazolo[5,4-b]pyridine-2-carboxylic acid hexylamide], the concentration for half-maximal inhibition (IC50) was 0.043 µM.

On to `Cc1ccccc1CNC(=O)n1c(=O)c2c(C)cc(Cl)nc2n1C` [Example 2, 6-Chloro-1,4-dimethyl-3-oxo-1,3-dihydro-pyrazolo[3,4-b]pyridine-2-carboxylic acid 2-methylbenzylamide], for which the IC50 was found to be 0.02 µM.

As to `Cc1cc(Cl)nc2c1c(=O)n(C(=O)N[C@@H]1CCc3ccccc31)n2C` [Example 14, 6-Chloro-1,4-dimethyl-3-oxo-1,3-dihydropyrazolo[3,4-b]pyridine-2-carboxylic acid (R)-indan-1-ylamide], the IC50 was 0.008 µM.

Turning to `Cc1cc(Cl)nc2[nH]n(C(=O)NC3CCCc4ccccc43)c(=O)c12` (stereo not shown) [Example 9, 6-Chloro-4-methyl-3-oxo-1,3-dihydropyrazolo[3,4-b]pyridine-2-carboxylic acid (1,2,3,4-tetrahydronaphthalen-1-yl)amide], the IC50 amounted to 1.21 µM.

Regarding `Cc1cc(Cl)nc2c1c(=O)n(C(=O)NCCc1cccs1)n2C` [Example 4, 6-Chloro-1,4-dimethyl-3-oxo-1,3-dihydropyrazolo[3,4-b]pyridine-2-carboxylic acid (2-thiophen-2-ylethyl)amide], the IC50 was determined as 0.019 µM.

In the case of `Cc1cc(Cl)nc2c1c(=O)n(C(=O)N[C@H]1CCc3ccccc31)n2C` [Example 13, 6-Chloro-1,4-dimethyl-3-oxo-1,3-dihydropyrazolo[3,4-b]pyridine-2-carboxylic acid (S)-indan-1-ylamide], the IC50 is 0.204 µM.

As to `CCCCCCNC(=O)n1c(=O)c2c(C)cc(Cl)nc2n1CCCC` [Example 10, 1-Butyl-6-chloro-4-methyl-3-oxo-1,3-dihydropyrazolo[3,4-b]pyridine-2-carboxylic acid hexylamide], the IC50 was 0.001 µM.

As to `CCCCn1c2nc(Cl)cc(C)c2c(=O)n1C(=O)NCCc1cccs1` [Example 11, 1-Butyl-6-chloro-4-methyl-3-oxo-1,3-dihydropyrazolo[3,4-b]pyridine-2-carboxylic acid (2-thiophen-2-ylethyl)amide], the IC50 was determined as 1.23 µM.

Regarding `CCCCCCNC(=O)n1c(=O)c2c(C)cc(Cl)nc2n1Cc1ccccc1` [Example 15, 1-Benzyl-6-chloro-4-methyl-3-oxo-1,3-dihydropyrazolo[3,4-b]pyridine-2-carboxylic acid hexylamide], the 50% inhibitory concentration (IC50) turned out to be 0.057 µM.

For `CCCCCCNC(=O)n1oc2nc(C(F)(F)F)ccc2c1=O` [Example 16, 3-Oxo-6-trifluoromethyl-3H-isoxazolo[5,4-b]pyridine-2-carboxylic acid hexylamide], the IC50 was 0.01 µM.

`Cc1cc(Cl)nc2[nH]n(C(=O)N[C@@H]3CCc4ccccc43)c(=O)c12` [Example 8, 6-Chloro-4-methyl-3-oxo-1,3-dihydropyrazolo[3,4-b]pyridine-2-carboxylic acid (R)-indan-1-ylamide]: the IC50 was 0.091 µM.
